Earlier results, collected in patent US10822355B2, “Ultralow-power near infrared lamp light operable targeted organic nanoparticle photodynamic therapy” (University of Massachusetts, priority 2016, dated 2020).

Tests used:
[1] = for ε: at 525 nm (B-1), 630 nm (B-2), 661 nm (B-3); for ΦF (%) / ε/10^5 M^−1 cm^−1 / λabs (max) / λem (max): literature values (References S2, S6, S7)
[2] = for ΦΔ (%): literature values (References S2, S6, S7)

Molecule: 2,6-diiodio-BODIPY [B-1]
- ε [1]: 85000 M⁻¹ cm⁻¹
- ΦF (%) [1]: 3%
- ε/10^5 M^−1 cm^−1 [1]: 0.85 10^5 M^−1 cm^−1
- λabs (max) [1]: 529
- λem (max) [1]: 548
- ΦΔ (%) [2]: 79.5%

Molecule: 2,6-diiodiodistyl-BODIPY [B-2]
- ε [1]: 77000 M⁻¹ cm⁻¹
- ΦF (%) [1]: 5%
- ε/10^5 M^−1 cm^−1 [1]: 0.77 10^5 M^−1 cm^−1
- λabs (max) [1]: 630
- λem (max) [1]: 654
- ΦΔ (%) [2]: 69.0%

Molecule: 2,6-diiodiodistyl-BODIPY [B-3]
- ε [1]: 98000 M⁻¹ cm⁻¹
- ΦF (%) [1]: 7%
- ε/10^5 M^−1 cm^−1 [1]: 0.98 10^5 M^−1 cm^−1
- λabs (max) [1]: 661
- λem (max) [1]: 689
- ΦΔ (%) [2]: 61.2%

Molecule: CN(C)c1ccc2nc3ccc(=[N+](C)C)cc-3sc2c1 [methyl blue, methylene blue]
- ΦΔ of reference ([2]; in dichloromethane): 0.52
